Data as given in ChEMBL document CHEMBL1909046, “DrugMatrix in vitro pharmacology data”.

How the values were obtained:
D(4) dopamine receptor = molecular target: T1, D(4) dopamine receptor (Homo sapiens, UniProt P21917); experiment: DRUGMATRIX: Dopamine D4.2 radioligand binding (ligand: [3H] Spiperone); format: cell membranes, CHO-K1, Membrane; details: cho-k1; Not Active = under 50% inhibition at 10 µM
T1 sequence (P21917 whole entry): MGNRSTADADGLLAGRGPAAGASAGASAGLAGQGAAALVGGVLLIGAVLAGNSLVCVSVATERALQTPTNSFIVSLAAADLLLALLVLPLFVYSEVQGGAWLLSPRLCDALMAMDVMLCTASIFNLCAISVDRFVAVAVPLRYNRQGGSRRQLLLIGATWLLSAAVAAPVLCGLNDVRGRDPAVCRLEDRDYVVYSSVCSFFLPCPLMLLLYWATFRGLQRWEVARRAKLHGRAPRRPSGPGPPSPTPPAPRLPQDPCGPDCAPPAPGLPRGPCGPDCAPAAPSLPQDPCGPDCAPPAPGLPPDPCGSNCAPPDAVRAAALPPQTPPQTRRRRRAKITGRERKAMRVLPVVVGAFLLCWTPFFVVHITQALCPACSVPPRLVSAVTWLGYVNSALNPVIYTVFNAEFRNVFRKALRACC

[1] = molecular target: Mitogen-activated protein kinase 14 (Homo sapiens, UniProt Q16539); design: species or system Escherichia coli;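 further: inhibition of p38alpha enzyme activity in a biochemical kinase assay, with myelin basic protein serving as substrate; in other assays of this panel Not Active means under 50% inhibition at 10 µM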
[2] = DRUGMATRIX: GABAA, Muscimol, Central radioligand binding (ligand: [3H] Muscimol); format: cell membranes, Rattus norvegicus, Wistar, Brain, Membrane; details: Not Active = under 50% inhibition at 10 µM
[3] = molecular target: T2, Receptor-type tyrosine-protein phosphatase C (Homo sapiens, UniProt P08575); design: species or system Escherichia coli;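 further: inhibition of CD45 enzyme activity measured using DiFMUP as substrate; in other assays of this panel Not Active means under 50% inhibition at 10 µM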
T2 sequence (P08575 whole entry): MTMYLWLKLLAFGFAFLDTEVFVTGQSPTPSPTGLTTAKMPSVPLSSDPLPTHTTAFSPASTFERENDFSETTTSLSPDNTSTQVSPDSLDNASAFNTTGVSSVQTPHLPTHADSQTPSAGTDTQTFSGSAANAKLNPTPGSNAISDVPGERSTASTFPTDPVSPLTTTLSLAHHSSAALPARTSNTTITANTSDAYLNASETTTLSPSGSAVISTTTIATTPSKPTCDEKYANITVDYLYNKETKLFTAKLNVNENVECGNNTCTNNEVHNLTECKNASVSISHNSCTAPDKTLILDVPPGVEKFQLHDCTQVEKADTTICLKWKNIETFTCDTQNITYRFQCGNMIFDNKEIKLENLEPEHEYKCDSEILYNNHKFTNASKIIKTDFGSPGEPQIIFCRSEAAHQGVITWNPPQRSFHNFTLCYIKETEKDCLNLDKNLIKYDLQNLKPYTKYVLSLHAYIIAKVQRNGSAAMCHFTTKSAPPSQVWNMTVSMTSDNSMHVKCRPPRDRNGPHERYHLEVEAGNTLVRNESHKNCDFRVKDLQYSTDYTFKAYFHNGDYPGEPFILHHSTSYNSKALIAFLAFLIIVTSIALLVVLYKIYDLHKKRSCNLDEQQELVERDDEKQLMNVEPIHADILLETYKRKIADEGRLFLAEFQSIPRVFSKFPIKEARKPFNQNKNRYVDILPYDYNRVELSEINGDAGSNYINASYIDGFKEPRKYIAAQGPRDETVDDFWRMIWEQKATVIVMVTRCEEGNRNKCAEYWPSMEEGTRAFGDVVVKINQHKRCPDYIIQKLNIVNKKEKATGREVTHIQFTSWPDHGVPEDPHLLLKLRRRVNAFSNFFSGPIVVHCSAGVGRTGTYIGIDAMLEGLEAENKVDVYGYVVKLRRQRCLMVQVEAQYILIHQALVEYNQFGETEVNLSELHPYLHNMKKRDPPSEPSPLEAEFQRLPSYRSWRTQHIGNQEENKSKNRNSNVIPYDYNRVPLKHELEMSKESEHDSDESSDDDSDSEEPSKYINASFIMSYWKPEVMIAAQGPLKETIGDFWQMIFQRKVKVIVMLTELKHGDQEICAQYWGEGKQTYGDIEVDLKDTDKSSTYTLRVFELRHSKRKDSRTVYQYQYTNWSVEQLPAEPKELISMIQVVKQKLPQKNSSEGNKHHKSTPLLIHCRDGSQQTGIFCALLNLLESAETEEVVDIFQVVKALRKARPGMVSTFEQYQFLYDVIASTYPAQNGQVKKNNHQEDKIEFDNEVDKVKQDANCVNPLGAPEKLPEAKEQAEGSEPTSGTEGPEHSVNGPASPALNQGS

Cathepsin G = molecular target: T3, Cathepsin G (Homo sapiens, UniProt P08311); format: tissue-based; details: neutrophil;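 further: inhibition of Cathepsin G enzyme activity, tested on an AMC-conjugated peptide substrate; in other assays of this panel Not Active means under 50% inhibition at 10 µM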
T3 sequence (P08311 whole entry): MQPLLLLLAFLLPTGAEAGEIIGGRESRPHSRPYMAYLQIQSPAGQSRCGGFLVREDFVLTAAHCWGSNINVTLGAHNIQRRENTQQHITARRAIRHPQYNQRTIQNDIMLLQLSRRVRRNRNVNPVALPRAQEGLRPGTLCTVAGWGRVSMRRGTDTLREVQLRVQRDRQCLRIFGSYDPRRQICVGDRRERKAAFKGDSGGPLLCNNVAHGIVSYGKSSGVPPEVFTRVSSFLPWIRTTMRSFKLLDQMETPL

D(3) dopamine receptor = D(3) dopamine receptor (Homo sapiens, UniProt P35462); experiment: DRUGMATRIX: Dopamine D3 radioligand binding (ligand: [3H] Spiperone); format: cell membranes, CHO, Membrane; details: cho
[4] = molecular target: C-C chemokine receptor type 2 (Homo sapiens, UniProt P41597); format: cell membranes, CHO-K1, Membrane; details: cho-k1; further: in other assays of this panel Not Active means under 50% inhibition at 10 µM
Caspase-1 = molecular target: T4, Caspase-1 (Homo sapiens, UniProt P29466); design: species or system Escherichia coli
T4 sequence (P29466 whole entry): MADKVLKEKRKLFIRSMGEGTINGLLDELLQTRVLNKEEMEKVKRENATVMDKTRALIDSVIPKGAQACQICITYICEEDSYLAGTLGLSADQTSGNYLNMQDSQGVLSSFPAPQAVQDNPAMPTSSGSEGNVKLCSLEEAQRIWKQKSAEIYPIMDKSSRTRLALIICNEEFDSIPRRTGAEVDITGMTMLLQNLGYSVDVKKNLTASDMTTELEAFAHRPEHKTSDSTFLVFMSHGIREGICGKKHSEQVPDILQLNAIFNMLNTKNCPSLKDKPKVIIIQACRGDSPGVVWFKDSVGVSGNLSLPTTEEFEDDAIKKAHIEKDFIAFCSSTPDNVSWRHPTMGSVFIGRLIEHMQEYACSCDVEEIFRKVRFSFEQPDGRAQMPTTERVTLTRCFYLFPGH

Acetylcholinesterase = Acetylcholinesterase (Homo sapiens, UniProt P22303); experiment: DRUGMATRIX: Acetylcholinesterase enzyme inhibition (substrate: acetylthiocholine); format: cell-based, HEK293; details: hek293; Not Active = under 50% inhibition at 10 µM
Chain of Acetylcholinesterase (P22303 whole entry): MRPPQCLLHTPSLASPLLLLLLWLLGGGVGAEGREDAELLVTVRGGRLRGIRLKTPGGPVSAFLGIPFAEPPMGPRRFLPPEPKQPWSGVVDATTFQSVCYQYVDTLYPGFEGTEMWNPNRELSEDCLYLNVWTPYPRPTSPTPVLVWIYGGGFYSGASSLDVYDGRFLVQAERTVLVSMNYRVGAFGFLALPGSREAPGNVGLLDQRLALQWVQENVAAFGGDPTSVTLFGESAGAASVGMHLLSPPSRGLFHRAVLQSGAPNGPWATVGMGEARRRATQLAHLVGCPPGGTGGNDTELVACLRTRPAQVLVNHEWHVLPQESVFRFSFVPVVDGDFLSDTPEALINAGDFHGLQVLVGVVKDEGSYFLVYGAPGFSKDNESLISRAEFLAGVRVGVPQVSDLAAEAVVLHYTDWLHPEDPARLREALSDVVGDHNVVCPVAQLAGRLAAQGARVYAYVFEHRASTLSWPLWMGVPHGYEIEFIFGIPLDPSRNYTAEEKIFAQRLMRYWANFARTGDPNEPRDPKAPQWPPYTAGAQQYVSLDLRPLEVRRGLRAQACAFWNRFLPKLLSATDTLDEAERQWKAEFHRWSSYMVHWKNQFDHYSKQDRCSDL

Chain of C-C chemokine receptor type 2 (P41597 whole entry): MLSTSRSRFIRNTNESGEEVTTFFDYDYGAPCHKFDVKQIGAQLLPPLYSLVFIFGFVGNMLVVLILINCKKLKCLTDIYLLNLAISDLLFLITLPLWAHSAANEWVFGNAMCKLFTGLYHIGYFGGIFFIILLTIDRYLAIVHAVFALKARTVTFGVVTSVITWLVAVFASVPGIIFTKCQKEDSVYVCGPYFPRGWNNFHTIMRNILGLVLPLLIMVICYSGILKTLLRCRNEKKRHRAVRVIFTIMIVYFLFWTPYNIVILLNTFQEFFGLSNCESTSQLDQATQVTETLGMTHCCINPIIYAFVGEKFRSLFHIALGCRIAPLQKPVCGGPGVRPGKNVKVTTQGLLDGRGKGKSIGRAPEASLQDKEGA
Chain of Mitogen-activated protein kinase 14 (Q16539 whole entry): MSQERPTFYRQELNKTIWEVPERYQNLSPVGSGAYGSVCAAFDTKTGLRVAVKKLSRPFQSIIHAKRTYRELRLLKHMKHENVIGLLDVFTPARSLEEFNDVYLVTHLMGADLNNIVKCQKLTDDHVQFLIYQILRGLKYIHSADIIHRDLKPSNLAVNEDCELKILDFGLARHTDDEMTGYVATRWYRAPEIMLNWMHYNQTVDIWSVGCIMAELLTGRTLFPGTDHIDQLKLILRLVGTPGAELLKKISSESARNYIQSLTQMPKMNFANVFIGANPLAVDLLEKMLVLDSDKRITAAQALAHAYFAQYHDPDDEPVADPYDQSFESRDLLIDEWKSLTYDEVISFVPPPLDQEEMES
Chain of D(3) dopamine receptor (P35462 whole entry): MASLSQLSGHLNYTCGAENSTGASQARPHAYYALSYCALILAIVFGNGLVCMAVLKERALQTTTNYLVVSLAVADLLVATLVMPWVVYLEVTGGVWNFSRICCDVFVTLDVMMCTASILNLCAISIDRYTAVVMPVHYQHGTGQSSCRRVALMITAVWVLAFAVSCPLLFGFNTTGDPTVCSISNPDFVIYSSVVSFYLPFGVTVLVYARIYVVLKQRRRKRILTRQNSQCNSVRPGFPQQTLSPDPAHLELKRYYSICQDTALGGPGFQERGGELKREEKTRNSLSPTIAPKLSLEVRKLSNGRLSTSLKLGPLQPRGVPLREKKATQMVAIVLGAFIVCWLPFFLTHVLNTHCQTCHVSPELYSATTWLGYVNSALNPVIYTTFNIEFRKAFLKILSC

CC(=O)OCC(=O)[C@@]1(OC(C)=O)[C@@H](C)C[C@H]2[C@@H]3C[C@H](F)C4=CC(=O)C=C[C@]4(C)[C@@]3(F)[C@@H](O)C[C@@]21C [DIFLORASONE DIACETATE]
Not Active: IC50 (D(4) dopamine receptor) | IC50 [1] | IC50 [2] | Ki [2] | IC50 [3] | IC50 (Cathepsin G) | IC50 (D(3) dopamine receptor) | IC50 [4] | IC50 (Caspase-1) | IC50 (Acetylcholinesterase)

C=C1[C@@H]2CCC3[C@@](CC[C@@H]4[C@H](C(=O)O)C[C@@H](O[C@@H]5O[C@H](CO)[C@@H](OS(=O)(=O)[O-])[C@H](OS(=O)(=O)[O-])[C@H]5OC(=O)CC(C)C)C[C@@]34C)(C2)[C@@H]1O.[K+].[K+] (stereo not given in full) [ATRACTYLOSIDE]
Not Active: IC50 (D(4) dopamine receptor) | IC50 [1] | IC50 [2] | Ki [2] | IC50 [3] | IC50 (Cathepsin G) | IC50 (D(3) dopamine receptor) | IC50 [4] | IC50 (Caspase-1) | IC50 (Acetylcholinesterase)

O=C1NC(=O)C(c2ccccc2)(c2ccccc2)N1 [PHENYTOIN]
Not Active: IC50 (D(4) dopamine receptor) | IC50 [1] | IC50 [2] | Ki [2] | IC50 [3] | IC50 (Cathepsin G) | IC50 (D(3) dopamine receptor) | IC50 [4] | IC50 (Caspase-1) | IC50 (Acetylcholinesterase)

O=C1OC2(c3ccc(O)cc3Oc3cc(O)ccc32)c2ccccc21 [FLUORESCEIN]
Not Active: IC50 (D(4) dopamine receptor) | IC50 [1] | IC50 [2] | Ki [2] | IC50 [3] | IC50 (Cathepsin G) | IC50 (D(3) dopamine receptor) | IC50 [4] | IC50 (Caspase-1) | IC50 (Acetylcholinesterase)

Cc1c(-c2ccccc2)oc2c(C(=O)OCCN3CCCCC3)cccc2c1=O [FLAVOXATE]
Not Active: IC50 (D(4) dopamine receptor) | IC50 [1] | IC50 [2] | Ki [2] | IC50 [3] | IC50 (Cathepsin G) | IC50 (D(3) dopamine receptor) | IC50 [4] | IC50 (Caspase-1) | IC50 (Acetylcholinesterase)

C=C1CC[C@H](O)C/C1=C/C=C1\CCC[C@]2(C)[C@@H]([C@H](C)/C=C/[C@H](C)C(C)C)CC[C@@H]12 [ERGOCALCIFEROL]
Not Active: IC50 (D(4) dopamine receptor) | IC50 [1] | IC50 [2] | Ki [2] | IC50 [3] | IC50 (Cathepsin G) | IC50 (D(3) dopamine receptor) | IC50 [4] | IC50 (Caspase-1) | IC50 (Acetylcholinesterase)

NCC1(CC(=O)O)CCCCC1 [GABAPENTIN]
Not Active: IC50 (D(4) dopamine receptor) | IC50 [1] | IC50 [2] | Ki [2] | IC50 [3] | IC50 (Cathepsin G) | IC50 (D(3) dopamine receptor) | IC50 [4] | IC50 (Caspase-1) | IC50 (Acetylcholinesterase)

O=c1cc(-c2ccccc2)oc2c1ccc1ccccc12 [ALPHA-NAPHTHOFLAVONE]
Not Active: IC50 (D(4) dopamine receptor) | IC50 [1] | IC50 [2] | Ki [2] | IC50 [3] | IC50 (Cathepsin G) | IC50 (D(3) dopamine receptor) | IC50 [4] | IC50 (Caspase-1) | IC50 (Acetylcholinesterase)

COc1c(N2CCNC(C)C2)c(F)cc2c(=O)c(C(=O)O)cn(C3CC3)c12 (stereo not given) [GATIFLOXACIN]
Not Active: IC50 (D(4) dopamine receptor) | IC50 [1] | IC50 [2] | Ki [2] | IC50 [3] | IC50 (Cathepsin G) | IC50 (D(3) dopamine receptor) | IC50 [4] | IC50 (Caspase-1) | IC50 (Acetylcholinesterase)

CC1=Nc2ccc(Cl)cc2S(=O)(=O)N1 [DIAZOXIDE]
Not Active: IC50 (D(4) dopamine receptor) | IC50 [1] | IC50 [2] | Ki [2] | IC50 [3] | IC50 (Cathepsin G) | IC50 (D(3) dopamine receptor) | IC50 [4] | IC50 (Caspase-1) | IC50 (Acetylcholinesterase)

COC(=O)[C@H](c1ccccc1Cl)N1CCc2sccc2C1 [CLOPIDOGREL]
Not Active: IC50 (D(4) dopamine receptor) | IC50 [1] | IC50 [2] | Ki [2] | IC50 [3] | IC50 (Cathepsin G) | IC50 (D(3) dopamine receptor) | IC50 [4] | IC50 (Caspase-1) | IC50 (Acetylcholinesterase)

CN(C)CCCC1(c2ccc(F)cc2)OCc2cc(C#N)ccc21 (stereo not given) [CITALOPRAM]
Not Active: IC50 (D(4) dopamine receptor) | IC50 [1] | IC50 [2] | Ki [2] | IC50 [3] | IC50 (Cathepsin G) | IC50 (D(3) dopamine receptor) | IC50 [4] | IC50 (Caspase-1) | IC50 (Acetylcholinesterase)

COc1ccc2c(c1)c(CC(=O)OCC(=O)O)c(C)n2C(=O)c1ccc(Cl)cc1 [ACEMETACIN]
Not Active: IC50 (D(4) dopamine receptor) | IC50 [1] | IC50 [2] | Ki [2] | IC50 [3] | IC50 (Cathepsin G) | IC50 (D(3) dopamine receptor) | IC50 [4] | IC50 (Caspase-1) | IC50 (Acetylcholinesterase)
